Data from article PMC10912632, “Racemization of the substrate and product by serine palmitoyltransferase from Sphingobacterium multivorum yields two enantiomers of the product from D-serine” (The Journal of Biological Chemistry, 2024).
Values joined by “and” are separate entries in the source; they are usually repeats but may differ in a detail not shown here. Equal entries are not always repeated. Where two headings read alike, the source gives them in different places. Marks after values point to notes of the source that are not given here.

Tests used:
[1] = molecular target: T1, Sphingobacterium multivorum SPT (Sphingobacterium multivorum, UniProt A7BFV6); experiment: Chiral HPLC of 7-methoxycoumarin-labeled KDS enantiomers after SPT reaction or incubation; type: biochemical; conditions: 1.3 mM KDS incubated with 230 μM SPT, 37 °C, 120 min
T1 construct: harboring the plasmid expressing the full-length SPT; made in house; host or cells: Escherichia coli BL21 (DE3) pLysS
From the text: KDS has a chiral center at the C2 position to which hydrogen, hydroxymethyl, amino, and acyl groups are attached. In the present study, it was necessary to know which optical isomer, (2S)- or (2R)-KDS, was formed from D-serine. In order to detect KDS enantiomers, we developed a new method in which each enantiomer of 7-methoxycoumarin-labeled KDS was separated and quantified by chiral HPLC (Fig. 2A). First, the standard compounds (2S)-2-amino-1-hydroxyoctadecan-3-one (L-serine–type (2S)-KDS) and (2R)-2-amino-1-hydroxyoctadecan-3-one (D-serine–type (2R)-KDS) were chemically synthesized (Supporting information). Next, the conditions for fluorescence labeling and HPLC were examined using these authentic compounds; the successful separation of KDS enantiomers was achieved by 7-methoxycoumarin labeling of the amino group of KDS (Fig. 2B, lines 1–3). The labeled (2S)-KDS and (2R)-KDS were eluted at 7.7 and 8.9 min, respectively, with the calculated separation factor of 1.3 (Fig. 2B, line 3). When the SPT reaction product derived from L-serine was analyzed, two fluorescence peaks were detected (Fig. 2B, line 4). […] Similarly, for the SPT reaction product derived from D-serine, two fluorescence peaks corresponding to 7-methoxycoumarin-labeled (2S)-KDS and 7-methoxycoumarin-labeled (2R)-KDS were detected (Fig. 2B, line 5). […]

[2] = molecular target: T1, Sphingobacterium multivorum SPT; experiment: Spectroscopic titration of SPT with amino acids (422 nm absorption, external aldimine formation); type: binding; conditions: 10 μM SPT
Procedure: (§1) Dependency of the reaction rates on amino acid concentrations under the condition of 1 mM palmitoyl-CoA was examined (Table 1). Each LCB product was quantified by the fluorescence intensity based on the standard curve obtained by using the corresponding authentic compound ([23]). The value of apparent catalytic efficiency ( kcatapp/Kmapp ) for D-serine was 0. 0013 min^–1 mM^–1 and was much smaller than that for L-serine ( kcatapp/Kmapp = 3.6 min^–1 mM^–1). Therefore, the KDS production by SPT from D-serine is considered to be negligible at the physiological concentration of D-serine. Next, binding of D-serine to the S. multivorum SPT was examined by spectroscopic titration. When SPT was incubated with D-serine, spectral changes corresponding to the external aldimine formation between PLP and the amino acid were observed (Supporting information).
Figure S1. Spectroscopic titration of the S. multivorum SPT with D-serine or α-methyl-D-serine. (A) Absorption spectra of SPT (10 μM) in the presence of 0, 2.0, 5.0, 9.9, 15, 20, 29, 38, and 48 mM D-serine (lines 1–9, respectively).
(B) Absorption spectra of SPT (10 μM) in the presence of 0, 3.0, 6.0, 9.9, 20, 34, 52, 74, and 99 mM α-methyl-D-serine (lines 1–9, respectively).
Determination of dissociation constants (Kd) for amino acids.
The titration assay was carried out as previously reported (1). The changes of the 422 nm-absorption intensities of SPT upon addition of amino acids were plotted against the final concentrations of the amino acids, and the Kd values were calculated by fitting to a hyperbolic saturation curve using Igor Pro 6.37. software (Wave Matrix Inc., Lake Oswego, Oregon, […]
United States). […]

[3] = molecular target: T1, Sphingobacterium multivorum SPT; experiment: Serine racemase assay of SPT (fluorescence derivatization, reverse-phase HPLC); type: biochemical; conditions: 1 mM D-serine, 47 μM SPT, 37 °C, no palmitoyl-CoA
Procedure: In order to verify the possibility of conversion between D-serine and L-serine, the serine racemase activity of SPT in the absence of palmitoyl-CoA was examined by the combination of fluorescence labeling and reverse-phase HPLC (Fig. 4).
One millimolar L-serine or D-serine was incubated with or without 47 μM SPT at 37 °C for 24 h. […] The reaction mixture containing 1 mM serine and 47 μM SPT was incubated at 37 °C for 1 to 24 h. […] The reaction mixture contained 1 mM serine and either or both of 1 mM PLP and 47 μM SPT.
Serine racemase assay of SPT was performed by determining the amount of each antipodal serine derivative formed from D-serine or L-serine as previously reported with some modifications ([48]). After D/L-serine was derivatized to fluorescent diastereomer, the enantioselective detection of serine was performed on an HPLC system with a Multi lambda Fluorescence Detector (Waters Corporation). The reaction was carried out at 37 °C for 1 to 24 h in a reaction mixture (100 μl) containing 100 mM Tris/HCl buffer (pH 7.5), 1 mM D/L-serine, and 47 μM SPT with or without 1 mM PLP. […] For fluorescence detection, the excitation and emission wavelengths were 350 nm and 450 nm, respectively. […]

[4] = molecular target: T1, Sphingobacterium multivorum SPT; experiment: Steady-state kinetics of LCB (KDS) formation by SPT; type: biochemical; conditions: 1 mM palmitoyl-CoA
Procedure: as §1
The assay was performed as previously reported ([23]). For qualitative analysis, 500 mM of L-serine or D-serine was incubated with 1 mM palmitoyl-CoA and 100 μM SPT in 100 μl of 100 mM potassium phosphate, pH 7.5, at 37 °C for 60 min. [1-^14C] palmitoyl-CoA (20 kBq/μmol) was supplemented into the above reaction mixture as the tracer. The reactions were terminated by addition of the equal volume of 2 N ammonia. Lipids were extracted by successive addition and mixing of 750 μl of chloroform/methanol (1:2, v/v), 250 μl of chloroform, and 250 μl of 1% KCl. Phases were separated by centrifugation, and the organic phase was recovered. […] For the quantitative analysis, the UV-fluorescence intensities of the reaction products on TLC plates were visualized by a Fusion chemiluminescence imaging system using a UV-light box and analyzed by a FUSION Capt software (Vilber Lourmat).
Steady-state kinetic parameters were determined by varying the concentrations of D-serine in the presence of 1 mM palmitoyl-CoA in 100 μl of 100 mM potassium phosphate, pH 7.5, at 37 °C. […] The reaction termination, lipid extraction, TLC analysis, and quantification of the reaction products on TLC plates were described above. […]

[5] = molecular target: T1, Sphingobacterium multivorum SPT; experiment: TLC/autoradiography analysis of KDS formation; type: biochemical; conditions: 500 mM serine, 1 mM [1-14C]-palmitoyl-CoA, 100 μM SPT, 37 °C, 60 min
From the text: We previously reported that the KDS formation from D-serine was not detected under physiological assay conditions using S. paucimobilis SPT ([15], [47]). […] Each reaction product was ninhydrin-positive with the specific color and the Rf value, which corresponded to those of a commercial authentic KDS on the TLC plate (Fig. 1A, lanes 2 and 4). […] Such radioactive reaction products were not detected under the reaction condition lacking the amino acid substrate or SPT. The structure of the reaction product derived from each serine enantiomer was confirmed by HPLC/triple quadrupole/linear ion trap mass spectrometry using a commercially available authentic KDS as the standard (Fig. 1C).
Figure 1 Formation of KDS from L-serine and D-serine by the Sphingobacterium multivorum SPT.A, image of the TLC analysis of KDS visualized with ninhydrin reagent: lane 1, extract of the reaction mixture without the amino acid substrate; lane 2, extract of the reaction mixture with L-serine; lane 3, commercial authentic KDS (L-serine–derived, (2S)-KDS); lane 4, extract of the reaction mixture with D-serine; lane 5, extract of the reaction mixture without SPT. The complete reaction mixture contained 500 mM L-/D-serine, 1 mM palmitoyl-CoA, and 100 μM SPT and was incubated at 37 °C for 60 min. […] Radioactivity was incorporated to the reaction product from the substrate [1-^14C]-palmitoyl-CoA. […]

[6] = molecular target: T1, Sphingobacterium multivorum SPT; set-up: method as in PMID 23957439; conditions: 1 mM palmitoyl-CoA; cited from earlier work
[7] = molecular target: T1, Sphingobacterium multivorum SPT; set-up: method as in PMID 23957439; conditions: spectroscopic titration; cited from earlier work

T1 sequence (A7BFV6 whole entry): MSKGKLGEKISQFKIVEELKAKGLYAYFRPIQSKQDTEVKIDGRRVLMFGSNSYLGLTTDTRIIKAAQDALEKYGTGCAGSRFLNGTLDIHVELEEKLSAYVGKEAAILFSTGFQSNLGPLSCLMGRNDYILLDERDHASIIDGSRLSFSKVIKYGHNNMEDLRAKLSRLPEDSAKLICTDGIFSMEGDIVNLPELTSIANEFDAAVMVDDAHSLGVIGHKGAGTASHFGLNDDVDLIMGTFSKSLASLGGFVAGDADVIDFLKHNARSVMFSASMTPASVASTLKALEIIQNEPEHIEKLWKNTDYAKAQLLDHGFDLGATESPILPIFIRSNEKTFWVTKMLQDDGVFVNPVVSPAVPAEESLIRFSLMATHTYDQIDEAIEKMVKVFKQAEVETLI

Compound: CCCCCCCCCCCCCCCC(=O)[C@H](N)CO [(2R)-KDS, (2R)-2-amino-1-hydroxyoctadecan-3-one]
- SPT-dependent racemization of KDS enantiomer [1]: the racemized product was formed in each case, albeit in a smaller amount

Compound: CCCCCCCCCCCCCCCC(=O)[C@@H](N)CO [(2S)-KDS, (2S)-2-amino-1-hydroxyoctadecan-3-one]
- SPT-dependent racemization of KDS enantiomer [1]: the racemized product was formed in each case, albeit in a smaller amount

Compound: N[C@H](CCO)C(=O)O [D-homoserine]
- Kd [2]: 90 ± 8 mM

Compound: N[C@H](CO)C(=O)O [D-serine]
- formation rate of L-serine from D-serine (racemization) [3]: 0.0020 min^–1
- Kd [2]: 11 ± 1.8 mM
- kcatapp/Kmapp (apparent catalytic efficiency) [4]: 0.0013 min^–1 mM^–1
- Kmapp ([4]; 10 μM SPT, pH 7.5, 37 °C): 237.7 ± 44.3 mM
- kcatapp ([4]; 10 μM SPT, pH 7.5, 37 °C): 0.31 ± 0.02 min^–1
- formation of KDS reaction product [5]: the reaction product was formed

Compound: C[C@H](N)C(=O)O [L-alanine]
- Kmapp [6]: 110 ± 9.0 ^b mM
- kcatapp [6]: 0.42 ± 0.011 ^b min^–1
- kcatapp/Kmapp (apparent catalytic efficiency) [6]: 0.0037 ^b min^–1 mM^–1

Compound: N[C@@H](CCO)C(=O)O [L-homoserine]
- Kd [7]: 3.6 ± 0.2 mM
- Kmapp [6]: 82 ± 14 ^b mM
- kcatapp [6]: 4.5 ± 0.28 ^b min^–1
- kcatapp/Kmapp (apparent catalytic efficiency) [6]: 0.055 ^b min^–1 mM^–1

Compound: N[C@@H](CO)C(=O)O [L-serine]
- formation of KDS reaction product [5]: the reaction product was formed
- Kmapp [6]: 3.6 ± 0.87 ^b mM
- kcatapp [6]: 13 ± 1.0 ^b min^–1
- kcatapp/Kmapp (apparent catalytic efficiency) [6]: 3.6 min^–1 mM^–1 and 3.6 ^b min^–1 mM^–1

Compound: NCC(=O)O [glycine]
- Kd [7]: 71 ± 5.5 mM
- Kmapp [6]: 77 ± 8.1 ^b mM
- kcatapp [6]: 0.008 ± 0.002 ^b min^–1
- kcatapp/Kmapp (apparent catalytic efficiency) [6]: 0.0001 ^b min^–1 mM^–1

Compound: C[C@@](N)(CO)C(=O)O [α-methyl-D-serine, reference compound]
- Kd [2]: 27 ± 2.5 mM

Compound: C[C@](N)(CO)C(=O)O [α-methyl-L-serine, reference compound]
- Kd [2]: 8.3 ± 1.8 mM
